Measurements taken from ChEMBL document CHEMBL5316301, “Dual Nicotinamide Phosphoribosyltransferase (NAMPT) and Indoleamine 2,3-Dioxygenase 1 (IDO1) Inhibitors for the Treatment of Drug-Resistant Nonsmall-Cell Lung Cancer” (J Med Chem, 2023).
Blank lines part the entries; values can stand above or below the compound they belong to. Active and inactive are the calls of the source. The calls are words filed in the database; no cut-off is given here.

Tests used:
A549 [1] = experiment: Downregulation of IDO1 expression in NAMPT inhibitor-resistant A549 cells measured for 24 hrs by Western blot analysis; assay type: functional, cell-based; details: Homo sapiens, dose 5-10 µM
A549 [2] = experiment: Antimigratory activity against NAMPT inhibitor-resistant A549 cells assessed as reduction in cell migration at 40 uM incubated for 24 hrs in presence of FK866 by inverted microscopic analysis; assay type: functional, cell-based; details: Homo sapiens
A549 [3] = experiment: cells; details: Homo sapiens, A549, 48 h
A549 [4] = experiment: cells; details: Homo sapiens, A549, 48 h; remark: listed apart in the source
[5] = molecular target: T1, Indoleamine 2,3-dioxygenase 1 (Homo sapiens, UniProt P14902); experiment: Inhibition of human recombinant IDO1 assessed as reduction in N-formylkynurenine formation using L-tryptophan as substrate preincubated for 30 mins followed by substrate addition and measured after 10 mins by SpectraMax microplate reader analysis
[6] = molecular target: Nicotinamide phosphoribosyltransferase (Homo sapiens, UniProt P43490); experiment: Inhibition of recombinant NAMPT (unknown origin) incubated for 60 mins by SpectraMax microplate reader analysis
[7] = molecular target: T1, Indoleamine 2,3-dioxygenase 1; experiment: Inhibition of human recombinant IDO1 in human HeLa cells assessed as reduction in N-formylkynurenine formation using L-tryptophan as substrate preincubated for 24 hrs followed by substrate addition and measured after 30 mins; assay type: cell-based
[8] = Toxicity in athymic nude mouse xenografted with NAMPT inhibitor-resistant A549 cells assessed as mortality at 50 to 200 mg/kg, po measured on day 21; assay type: organism-based; details: in vivo, 504 h, dose 50-200 mg/kg, time 21 day
[9] = Apparent volume of distribution in Sprague-Dawley rat at 5 mg/kg, iv; assay type: ADME, organism-based; details: in vivo, read-out: Vz
A549 [10] = experiment: Downregulation of NAD+ level in NAMPT inhibitor-resistant A549 cells at 10 uM measured for 24 hrs in presence of NMN/L-tryptophan/QA; assay type: functional, cell-based; details: Homo sapiens
Danio rerio [11] = species on record: Danio rerio; experiment: Induction of ROS production in zebra fish embryos assessed as increase in green fluorescence at 10 uM measured for 24 hrs by DCFH-DA staining based inverted microscopic analysis; assay type: functional
[12] = Toxicity in athymic nude mouse xenografted with NAMPT inhibitor-resistant A549 cells assessed as change in body weight at 50 to 200 mg/kg, po measured on day 21; assay type: organism-based; details: in vivo, 504 h, dose 50-200 mg/kg, time 21 day
A549 [13] = experiment: Effect on intracellular lipid level in NAMPT inhibitor-resistant A549 cells measured for 24 hrs by oil red staining based microscopic analysis; assay type: functional, cell-based; details: Homo sapiens
A549 [14] = experiment: Antitumor activity against NAMPT inhibitor-resistant A549 cells xenografted in athymic nude mouse assessed as tumor growth inhibition at 100 mg/kg, po bid measured on day 21 by caliper method; assay type: functional, Homo sapiens; details: A549, 504 h, time 21 day, read-out: TGI
A549 [15] = experiment: Downregulation of IDO1 expression in NAMPT inhibitor-resistant A549 cells measured for 12 hrs in presence of MG-132 by Western blot analysis; assay type: functional, cell-based; details: Homo sapiens
A549 [16] = experiment: Induction of ROS production in NAMPT inhibitor-resistant A549 cells assessed as ROS accumulation incubated for 24 hrs by DCFH-DA staining based flow cytometry analysis; assay type: functional, cell-based; details: Homo sapiens, dose 5-15 µM
A549 [17] = experiment: Antiproliferative activity against NAMPT inhibitor-resistant A549 cells assessed as reduction in cell viability in presence of NMN/L-tryptophan/QA measured for 48 hrs by CCK-8 assay; assay type: functional, cell-based; details: Homo sapiens
[18] = AUC in Sprague-Dawley rat at 25 mg/kg, po; assay type: ADME, organism-based; set-up: dose 25 mg/kg, route po; details: in vivo
A549 [19] = experiment: Downregulation of NAMPT expression in NAMPT NAMPT inhibitor-resistant A549 cells measured for 24 hrs by Western blot analysis; assay type: functional, cell-based; details: Homo sapiens, dose 5-10 µM
A549 [20] = experiment: Downregulation of IDO1 expression in NAMPT inhibitor-resistant A549 cells measured for 12 hrs in presence of cycloheximide by Western blot analysis; assay type: functional, cell-based; details: Homo sapiens
A549 [21] = experiment: Antitumor activity against NAMPT inhibitor-resistant A549 cells xenografted in athymic nude mouse assessed as tumor growth inhibition at 200 mg/kg, po bid measured on day 21 by caliper method; assay type: functional, Homo sapiens; details: A549, 504 h, time 21 day, read-out: TGI
A549 [22] = experiment: Antitumor activity against NAMPT inhibitor-resistant A549 cells xenografted in athymic nude mouse assessed as reduction in tumor size at 50 to 200 mg/kg, po bid measured on day 21 in presence of taxol by caliper method; assay type: functional, organism-based; details: Homo sapiens, dose 50-200 mg/kg, time 21.0 day
A549 [23] = experiment: Antimigratory activity against NAMPT inhibitor-resistant A549 cells assessed as inhibition of cell migration measured after 24 hrs by crystal violet staining based microscopic analysis; assay type: functional; details: Homo sapiens, dose 5-15 µM
A549 [24] = experiment: Antitumor activity against NAMPT inhibitor-resistant A549 cells xenografted in athymic nude mouse assessed as tumor growth inhibition at 50 mg/kg, po bid measured on day 21 by caliper method; assay type: functional, Homo sapiens; details: A549, 504 h, time 21 day, read-out: TGI
A549 [25] = experiment: Antitumor activity against NAMPT inhibitor-resistant A549 cells xenografted in athymic nude mouse at 100 to 200 mg/kg, po measured for 14 days in presence of FK866; assay type: functional, organism-based; details: Homo sapiens, dose 100-200 mg/kg, time 14.0 day
A549 [26] = experiment: Antimigratory activity against NAMPT inhibitor-resistant A549 cells assessed as decrease in Snail expression incubated 24 hrs by Western blot analysis; assay type: functional, cell-based; details: Homo sapiens, dose 5-15 µM
A549 [27] = experiment: Antitumor activity against NAMPT inhibitor-resistant A549 cells xenografted in athymic nude mouse at 100 mg/kg, po measured for 14 days in presence of epacadostat; assay type: functional, organism-based; details: Homo sapiens, time 14.0 day
A549 [28] = experiment: Antimigratory activity against NAMPT inhibitor-resistant A549 cells assessed as decrease in slug expression incubated 24 hrs by Western blot analysis; assay type: functional, cell-based; details: Homo sapiens, dose 5-15 µM
[29] = Oral bioavailability in Sprague-Dawley rat at 25 mg/kg; assay type: ADME, organism-based; details: in vivo
A549 [30] = experiment: Downregulation of NAD+ level in NAMPT inhibitor-resistant A549 cells at 10 uM measured for 24 hrs; assay type: functional, cell-based; details: Homo sapiens
[31] = Clearance in Sprague-Dawley rat at 5 mg/kg, iv; assay type: ADME, organism-based; details: in vivo
A549 [32] = experiment: Induction of ROS production in NAMPT inhibitor-resistant A549 cells assessed as ROS accumulation at 5 to 15 uM incubated for 24 hrs in presence of NAC by DCFH-DA staining based flow cytometry analysis; assay type: functional, cell-based; details: Homo sapiens, dose 5-15 µM
A549 [33] = experiment: Antiproliferative activity against NAMPT inhibitor-resistant A549 cells assessed as reduction in cell viability in presence of NAC measured for 48 hrs by CCK-8 assay; assay type: functional, cell-based; details: Homo sapiens
Danio rerio [34] = species on record: Danio rerio; experiment: Induction of ROS production in zebra fish embryos assessed as increase in green fluorescence at 5 uM measured for 24 hrs by DCFH-DA staining based inverted microscopic analysis; assay type: functional
A549 [35] = experiment: Antitumor activity against NAMPT inhibitor-resistant A549 cells xenografted in athymic nude mouse at 100 mg/kg, po measured for 14 days in presence of FK866; assay type: functional, organism-based; details: Homo sapiens, time 14.0 day
A549 [36] = experiment: Antiproliferative activity against NAMPT inhibitor-resistant A549 cells assessed as reduction in cell viability in presence of NMN and L-tryptophan measured for 48 hrs by CCK-8 assay; assay type: functional, cell-based; details: Homo sapiens
A549 [37] = experiment: Inhibition of colony formation in NAMPT inhibitor-resistant A549 cells […] by crystal violet staining analysis; assay type: functional, cell-based; details: Homo sapiens, dose 5-15 µM
A549 [38] = experiment: Antimigratory activity against NAMPT inhibitor-resistant A549 cells assessed as reduction in cell migration at 5 uM incubated for 24 hrs in presence of taxol by inverted microscopic analysis; assay type: functional, cell-based; details: Homo sapiens
A549 [39] = experiment: Effect on intracellular lipid level in NAMPT inhibitor-resistant A549 cells measured for 24 hrs by nile red staining based microscopic analysis; assay type: functional, cell-based; details: Homo sapiens
A549 [40] = experiment: Downregulation of Smad3 expression in NAMPT inhibitor-resistant A549 cells at 5 to 15 uM measured for 24 hrs; assay type: functional, cell-based; details: Homo sapiens, dose 5-15 µM
A549 [41] = experiment: Antitumor activity against NAMPT inhibitor-resistant A549 cells xenografted in athymic nude mouse assessed as tumor growth inhibition at 100 mg/kg, po bid measured on day 21 in presence of taxol by caliper method; assay type: functional, Homo sapiens; details: A549, 504 h, time 21 day, read-out: TGI
A549 [42] = experiment: Antitumor activity against NAMPT inhibitor-resistant A549 cells xenografted in athymic nude mouse at 100 to 200 mg/kg, po measured for 14 days in presence of epacadostat; assay type: functional, organism-based; details: Homo sapiens, dose 100-200 mg/kg, time 14.0 day

T1 sequence (P14902 whole entry): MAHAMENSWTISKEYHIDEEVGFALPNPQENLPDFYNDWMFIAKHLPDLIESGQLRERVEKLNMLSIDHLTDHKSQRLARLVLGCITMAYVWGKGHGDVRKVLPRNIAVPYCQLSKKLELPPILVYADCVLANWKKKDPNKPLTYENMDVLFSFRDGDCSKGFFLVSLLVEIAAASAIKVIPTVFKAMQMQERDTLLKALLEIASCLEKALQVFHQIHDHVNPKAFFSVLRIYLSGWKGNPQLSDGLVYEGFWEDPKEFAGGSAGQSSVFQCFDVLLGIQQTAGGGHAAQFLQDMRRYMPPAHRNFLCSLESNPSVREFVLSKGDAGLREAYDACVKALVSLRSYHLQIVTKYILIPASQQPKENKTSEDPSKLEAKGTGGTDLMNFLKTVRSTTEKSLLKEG
Nicotinamide phosphoribosyltransferase, sequence (P43490 whole entry): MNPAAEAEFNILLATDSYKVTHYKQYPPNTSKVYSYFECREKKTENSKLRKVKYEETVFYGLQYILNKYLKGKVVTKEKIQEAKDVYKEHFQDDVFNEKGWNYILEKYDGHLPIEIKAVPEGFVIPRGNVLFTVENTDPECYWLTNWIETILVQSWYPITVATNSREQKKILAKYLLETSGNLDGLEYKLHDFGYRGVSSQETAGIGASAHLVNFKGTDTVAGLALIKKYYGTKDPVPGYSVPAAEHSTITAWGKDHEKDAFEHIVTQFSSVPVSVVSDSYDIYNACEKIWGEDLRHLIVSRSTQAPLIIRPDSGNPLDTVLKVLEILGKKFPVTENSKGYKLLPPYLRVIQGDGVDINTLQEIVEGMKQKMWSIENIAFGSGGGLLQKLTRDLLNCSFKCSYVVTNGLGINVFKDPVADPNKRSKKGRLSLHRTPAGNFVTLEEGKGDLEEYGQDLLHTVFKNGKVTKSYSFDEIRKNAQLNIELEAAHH

Structure (SMILES): NS(=O)(=O)NCCNc1nonc1/C(=N/O)Nc1ccc(F)c(Br)c1 [EPACADOSTAT]
- Activity (A549 [1]): inactive
- Activity (A549 [2]): Active
- IC50 (A549 [3]): 61.1 µM
- IC50 (A549 [4]): 34.5 µM

Structure (SMILES): O=C(Nc1ccc(CCNc2nonc2/C(=N/O)Nc2ccc(F)c(Br)c2)cc1)c1ccc2nccn2c1
- IC50 [5]: > 1 µM
- IC50 [6]: > 10 µM

Structure (SMILES): O=C(NCCCCNc1nonc1/C(=N/O)Nc1ccc(F)c(Br)c1)c1ccc(CNC(=O)c2ccc3nccn3c2)cc1
- IC50 [5]: 0.835 µM
- IC50 [7]: 0.677 µM

Structure (SMILES): O=C(NCCCCCCNc1nonc1/C(=N/O)Nc1ccc(F)c(Br)c1)c1ccc2nccn2c1
- Activity [8]: Non-Toxic
- Vd [9]: 11.5 L/kg
- Activity (A549 [10]): Active
- Activity (Danio rerio [11]): Active
- Activity (A549 [1]): Dose-Dependent Effect
- Activity [12]: Non-Toxic
- Activity (A549 [13]): Active
- inhibition in vivo at 100 mg/kg (A549 [14]): 40.2%
- Activity (A549 [15]): inactive
- IC50 (A549 [3]): 5.35 µM
- Activity (A549 [16]): Dose-Dependent Effect
- Activity (A549 [17]): inactive
- AUC [18]: 2530 ng·h/mL
- Activity (A549 [19]): Dose-Dependent Effect
- Activity (A549 [20]): Active
- inhibition in vivo at 200 mg/kg (A549 [21]): 53.8%
- Activity (A549 [22]): Active
- Activity (A549 [23]): Dose-Dependent Effect
- IC50 [5]: 0.233 µM
- inhibition in vivo at 50 mg/kg (A549 [24]): 24.6%
- Activity (A549 [25]): Active
- Activity (A549 [26]): Dose-Dependent Effect
- Activity (A549 [27]): Active
- Activity (A549 [28]): Dose-Dependent Effect
- bioavailability [29]: 52.5%
- IC50 [6]: 0.0577 µM
- Activity (A549 [30]): Active
- clearance [31]: 106 mL/min/kg
- Activity (A549 [32]): inactive
- Activity (A549 [33]): inactive
- Activity (Danio rerio [34]): Active
- Activity (A549 [35]): Active
- Activity (A549 [36]): inactive
- inhibition (A549 [37]): Dose-Dependent Effect
- Activity (A549 [38]): Active
- Activity (A549 [39]): Active
- IC50 [7]: 0.16 µM
- Activity (A549 [40]): Active
- inhibition in vivo at 100 mg/kg (A549 [41]): 64.3%
- Activity (A549 [42]): Active

Structure (SMILES): O=C(NCc1ccc(C(=O)N2CCC(CCNc3nonc3/C(=N/O)Nc3ccc(F)c(Br)c3)CC2)cc1)c1ccc2nccn2c1
- IC50 [5]: > 1 µM

Structure (SMILES): O=C(NCc1ccc(CNc2nonc2/C(=N/O)Nc2ccc(F)c(Br)c2)cc1)c1ccc2nccn2c1
- IC50 [5]: > 1 µM
- IC50 [6]: 4.88 µM

More lines, in order of falling IC50 [5], values ahead:

- IC50 [5]: 0.73 µM
- IC50 [6]: > 10 µM
- IC50 [7]: 0.663 µM
Structure (SMILES): O=C(CCCNc1nonc1/C(=N/O)Nc1ccc(F)c(Br)c1)Nc1ccc(CNC(=O)c2ccc3nccn3c2)cc1

- IC50 [5]: 0.66 µM
- IC50 [7]: 0.52 µM
Structure (SMILES): O=C(NCCCCNc1nonc1/C(=N/O)Nc1ccc(F)c(Br)c1)c1ccc2nccn2c1

- IC50 [5]: 0.151 µM
- IC50 [7]: 0.161 µM
Structure (SMILES): O=C(CCNc1nonc1/C(=N/O)Nc1ccc(F)c(Br)c1)Nc1ccc(CNC(=O)c2ccc3nccn3c2)cc1
